# Test results reported in paper PMC12309968 (iScience, 2025).
# Entries after “also recorded” stand apart in the source; their conditions may differ. Read-outs that look alike come from different tables or passages of the source. Positions of bridges follow the written chain, without caps; N, C: chain ends. Non-standard residues stand in square brackets, D forms with d. Residues, ends and D or L forms follow the SMILES beside them. *: point of attachment. Octanoyl = CCCCCCCC(=O)*; Dab = NCC[C@H](N)C(=O)O; Abu = CC[C@H](N)C(=O)O
# What was measured:
# [1] = target: Stx2a (Escherichia phage 933W, UniProt P09385+P09386); assay: biochemical; assay type: binding, E. coli (C600-933W strain)
# [2] = in vivo; cited from earlier work
# [3] = tested on: CD-1 mice; conditions: mouse, in vivo, iv
# [4] = tested on: human renal tubular cells; conditions: cited from earlier work
# [5] = tested on: cynomolgus monkey; conditions: in vivo; cited from earlier work
# [6] = tested on: Stx2a binding to TLR4-expressing Gb3Cer-lacking human neutrophils
# [7] = tested on: human leukocytes
# [8] = target: lactate dehydrogenase A (LDH-A), tetrameric form (Homo sapiens, UniProt P00338); assay: biochemical; assay type: binding
# [9] = tested on: human erythrocytes
# [10] = tested on: E. coli SOS response; conditions: cited from earlier work
# [11] = tested on: Stx2a binding to TLR4-expressing Gb3Cer-lacking human neutrophils; conditions: cited from earlier work
# [12] = tested on: SOS response; conditions: cited from earlier work
# [13] = tested on: Raji cells (Gb3Cer-expressing); conditions: cited from earlier work
# [14] = tested on: neutrophil/platelet aggregates; assay type: cell-based, human
# [15] = tested on: E. coli; conditions: cited from earlier work
# [16] = tested on: Shigella; conditions: cited from earlier work
# [17] = tested on: interaction between LPS and TLR4; conditions: cited from earlier work
# [18] = tested on: monocyte/platelet aggregates; assay type: cell-based, human
molecule,measurement,setting,value
CCCCCCCC(=O)N[C@@H](CCN)C(=O)N[C@H](C(=O)N[C@@H](C(=O)N[C@H]1CCNC(=O)[C@H]([C@@H](C)O)NC(=O)[C@H](CCN)NC(=O)[C@H](CC)NC(=O)[C@H](CC(C)C)NC(=O)[C@@H](Cc2ccccc2)NC(=O)[C@H](CCN)NC1=O)[C@H](C)O)[C@@H](C)O [NAB815] (Octanoyl-[Dab]T[dT][Dab][Dab][dF]L[Abu][Dab]T; lactam 4-C),Kd,[1],0.05 µM
same,maximum reduction (quenching) of Stx2a fluorescence,[1],approximately 10%
same,excretion into urine relative to polymyxin B,[2],approximately 10 times
same,serum creatinine and urea,[3],No changes in serum creatinine and urea were found
same,"IC50, cytotoxicity to human renal tubular cells",[4],334 µg/mL
same,cytotoxicity lower than that of polymyxin B (fold),[4],approximately 20 times
same,"serum creatinine, blood urea nitrogen, urinary biomarkers",[5],"no significant increase in serum creatinine, blood urea nitrogen, or in the urinary biomarkers tested"
same,tolerability,[5],well tolerated
same,IC50 in inhibiting the binding of Stx2a to human neutrophils,[6],0.057 µg/mL
same,necrotic leukocytes (7-AAD+),[7],the number of necrotic cells was negligible
same,Kd,[8],10 µM
same,hemolysis,[9],no hemolysis occurred
O=C(O)c1cn(C2CC2)c2cc(N3CCNCC3)c(F)cc2c1=O [ciprofloxacin],MIC/SIC ratio,[10],8
same,SOS-inducing action,[10],frequently used as a model antibiotic inducing the SOS response
CNC(C)C1CCC(N)C(OC2C(N)CC(N)C(OC3OCC(C)(O)C(NC)C3O)C2O)O1 (stereo not drawn) [gentamicin],MIC/SIC ratio,[10],1.8
same,SOS-inducing action,[10],poor
CO[C@@]12[C@H](COC(N)=O)C3=C(C(=O)C(C)=C(N)C3=O)N1C[C@@H]1N[C@@H]12 [mitomycin C],MIC/SIC ratio,[10],1.4
same,SOS-inducing action,[10],strong SOS-inducing actions
Triton X-100,hemolysis,[9],"no hemolysis occurred, unlike treatment with Triton X-100, chosen as a positive control"
polymyxin B,IC50 in inhibiting the binding of Stx2a to human neutrophils,[11],3.5 µg/mL
same,"effect on Stx2a/TLR4 interactions, binding of Stx2a to leukocytes",[11],effectively impairs the Stx2a/TLR4 interactions; also recorded: does block the binding of Stx2a to leukocytes at μg/mL concentrations that are also highly bactericidal
same,concentration eliciting the SOS response,[12],higher than 1 μg/mL
same,lack of protection of Gb3Cer-expressing Raji cells from Stx2a,[13],as previously shown with polymyxin B
same,effect on neutrophil/platelet aggregates,[14],ineffective at these concentrations
same,MIC,[15],1 µg/mL
same,concentration inducing release of considerable amounts of Stx by Shigella,[16],higher than 1 μg/mL
same,"IC50, cytotoxicity to human renal tubular cells",[4],18 µg/mL
same,tolerability,[5],had to be euthanized because of severe nephrotoxicity
same,block of LPS/TLR4 interaction,[17],known to block the interaction between the bacterial endotoxin (lipopolysaccharide [LPS]) and TLR4
same,effect on monocyte/platelet aggregates,[18],ineffective at these concentrations
